Measured values: patent publication US20250338851A1, “Boosted IPBC for Wet-State Bacterial Control” (Troy Technology II, Inc., priority 2021, published 2025)
Several values for one entry are separate records, joined by “and”; a condition that tells them apart may be missing. Identical values can stand only once. Like-named read-outs stand apart in the source and are kept apart here.

How the values were obtained:
Type in all cases: cell-based
[1] = tested on: Bacillus sp. Troy JZ14; experiment: Minimum inhibitory concentration testing (microbroth dilution) and synergy index; conditions: 96 well microbroth dilution, MHB, 24 hours of incubation
Method: (§1) MICs were determined via microbroth dilution using the following specific test parameters:
(§2) Necessary organism dilutions via OD600 were calculated based on OD600 of 1.0 being equivalent to 8×10^8 CFU/mL. Biocide dilutions were performed in 2-fold increments for each assay.
(§3) Synergy index (SI) scores were calculated according to the mass action equation below: […]
(§4) S.I.[MIC[A]in-blend/MIC[A]alone]+[MIC[B]in-blend/MIC[B]alone]
(§5) Combinations of ingredients were determined to be synergistic (S.I.<0.5), additive (S.I.>0.5 to 1), indifferent (S.I.>1 to <2) or antagonistic (S.I.>2), as defined by EUCAST guidelines. See European Committee for Antimicrobial Susceptibility Testing (EUCAST) of the European Society of Clinical Microbiology and Infectious Diseases (ESCMID). EUCAST Definitive Document E.Def 1.2, May 2000: Terminology relating to methods for the determination of susceptibility of bacteria to antimicrobial agents, Clin. Microbiol. Infect. Off Publ. Eur. Soc. Clin. Microbiol. Infect. Dis. 6, 503-508 (2000); Helander I. M., Mattila-Sandholm T., Fluorometric assessment of gram-negative bacterial permeabilization, J. Appl. Microbiol. 88:213-219 (2000).

[2] = tested on: Burkholderia sp. Troy JZ2; experiment: as above
Method: as §1, §2, §3, §4, §5

[3] = tested on: Pseudomonas aeruginosa (ATCC #10145); experiment: Kill curve; conditions: for Kill curve CFU/mL: 0.2%
Method: Overnight cultures of Pseudomonas aeruginosa (ATCC #10145) growing in Tryptic Soy Broth were diluted to OD600=0.7 in Mueller Hinton Broth containing the indicated level of test compound. Samples containing IPBC were dosed with Polyphase PW40 (40% IPBC). Samples containing ZnO were dosed from a 50% ZnO dispersion (“1678-54”). Time points were collected by adding 1 mL of the sample into 9 mL of Dey-Engley Neutralizing Broth and performing a serial dilution in 1× Butterfield's Phosphate Buffer. Counts were obtained from pour plates in Tryptic Soy Agar after overnight incubation at 35° C.

[4] = tested on: bacterial consortium: Alcaligenes faecalis, Enterobacter aerogenes, Escherichia coli, Pseudomonas aeruginosa, Staphylococcus aureus, Microbacterium …; experiment: Bacterial challenge testing (industrial strength); conditions: Interior Paint #1; lowest concentration free of detectable bacterial growth 7 days following the 4th inoculation
Text: Where industrial strength inoculations are indicated, bacterial challenge testing organisms were Alcaligenes faecalis (ATCC #25094), Enterobacter aerogenes (ATCC #13048), Escherichia coli (ATCC #11229), Pseudomonas aeruginosa (ATCC #10145), Staphylococcus aureus (ATCC #6538), Microbacterium paraoxydans (Troy Isolate), Burkholderia cenocepacia (Troy Isolate), Citrobacter werkmanii (Troy Isolate), and Acinetobacter sp. (Troy Isolate). All bacteria were blended from separate overnight cultures grown in Tryptic Soy Broth (TSB) and mixed at equal CFU via OD600 measurements, then diluted to OD600=7 (˜10^9 CFU/mL) to create the final bacterial consortium. Each mixture was prepared shortly before each inoculation. Inoculations were performed by adding […] to 50 g of the indicated test sample to give ˜10^7 CFU/g per inoculation. Viability readings were performed at the indicated intervals following each challenge by applying a small amount of the test sample onto PCA. Plates were then incubated at 32° C. for 3-5 days before being evaluated with a semi-quantitative scale. This scale estimates the approximate CFU/g by visual assessment of the colony density along the streak lines. Readings are recorded as the average of two duplicate semi-quantitative readings from “0” to “4.” Samples were mixed before every viability reading and after every inoculation.
(§6) Challenge test scoring was done by the weighted sum of squares for each of the twelve data points collected for each test sample. The weighting was done proportional to the streak day, with day 1 weighted at 10%, day 2 weighted at 20%, and day 3 weighted at 70%. The sum of all 12 values is then taken and divided by the score of the unprotected sample to achieve the total growth score. The reported “weighted performance” score is 1 minus the growth score.

[5] = tested on: Pseudomonas sp. Troy JZ103; experiment: Minimum inhibitory concentration testing (microbroth dilution) and synergy index; conditions: 96 well microbroth dilution, MHB, 24 hours of incubation
Method: as §1
(§7) Biocide dilutions were performed in 2-fold increments for each assay.
as §3, §4
as §5, with “6, 503-508 (2000); Helander I. M., Mattila-Sandholm T., Fluorometric assessment of gram-negative bacterial permeabilization, J. Appl.” left out, “Microbiol.” for “Microbiol. 88:213-219 (2000).”

[6] = tested on: P. aeruginosa ATCC #10145; experiment: as above
Method: as §1, §7, §3, §4
as §5, with “6, 503-508 (2000); Helander I. M., Mattila-Sandholm T., Fluorometric assessment of gram-negative bacterial permeabilization, J. Appl.” left out, “Microbiol.” for “Microbiol. 88:213-219 (2000).”

[7] = tested on: E. coli ATCC #11229; experiment: as above; conditions: 96 well microbroth dilution, MHB, 24 hours of incubation
Method: as §1, §7, §3, §4
as §5, with “6, 503-508 (2000); Helander I. M., Mattila-Sandholm T., Fluorometric assessment of gram-negative bacterial permeabilization, J. Appl.” left out, “Microbiol.” for “Microbiol. 88:213-219 (2000).”

[8] = tested on: E. aerogenes ATCC #13048; experiment: as above; conditions: Klebsiella aerogenes, ATCC13048; 96 well microbroth dilution, MHB, 24 hours of incubation; read-out: MIC
Method: as §1, §7, §3, §4
as §5, with “6, 503-508 (2000); Helander I. M., Mattila-Sandholm T., Fluorometric assessment of gram-negative bacterial permeabilization, J. Appl.” left out, “Microbiol.” for “Microbiol. 88:213-219 (2000).”

[9] = tested on: S. aureus ATCC #6538; experiment: as above; conditions: 96 well microbroth dilution, MHB, 24 hours of incubation
Method: as §1, §7, §3, §4
as §5, with “6, 503-508 (2000); Helander I. M., Mattila-Sandholm T., Fluorometric assessment of gram-negative bacterial permeabilization, J. Appl.” left out, “Microbiol.” for “Microbiol. 88:213-219 (2000).”

[10] = tested on: Microbacterium sp. Troy JZ13; experiment: as above; conditions: 96 well microbroth dilution, MHB, 24 hours of incubation
Method: as §1, §7, §3, §4
as §5, with “6, 503-508 (2000); Helander I. M., Mattila-Sandholm T., Fluorometric assessment of gram-negative bacterial permeabilization, J. Appl.” left out, “Microbiol.” for “Microbiol. 88:213-219 (2000).”

[11] = tested on: bacterial consortium: Alcaligenes faecalis (ATCC #25094), Enterobacter aerogenes (ATCC #13048), Escherichia coli (ATCC #11229), Pseudomonas aeruginosa (ATCC …); experiment: Bacterial challenge testing (standard)
Method: Bacterial and fungal challenge testing was performed following Troy's standard challenge test procedure SOP MI-07. […] Where indicated, additional bacterial organisms were added to the inoculum such that each organism in the inoculum provided equal CFU. […] Fungal consortia were prepared on Malt Agar slants and diluted to 10^6 spores/mL using a hemocytometer to count before use. Each mixture was prepared shortly before each inoculation. Inoculations were performed by adding 0.5 mL to 50 g of the indicated test sample, giving either ˜10^6 CFU/g of bacteria or ˜10^4 spores/g of fungi per challenge. Viability readings were performed at the indicated intervals following each challenge by applying a small amount of the test sample onto PCA (for bacteria) or Malt Agar (for fungus). Bacterial plates were then incubated at 32° C. for 3-5 days, and Malt Agar plates were incubated for 1 week at 28° C. before reading. Viability plates were evaluated with a semi-quantitative scale. This scale estimates the approximate CFU/g by visual assessment of the colony density along the streak lines. Readings are recorded as the average of two duplicate semi-quantitative readings from “0” to “4.” Samples were mixed before every viability reading and after every inoculation.
as §6

[12] = tested on: Pseudomonas aeruginosa (ATCC #10145); experiment: NPN uptake assay (membrane permeability); conditions: 1% w/v solutions
Method: The NPN uptake assay was performed roughly as previously described. See Helander I. M., Mattila-Sandholm T., Fluorometric assessment of gram-negative bacterial permeabilization, J. Appl. Microbiol. […] Next, the cells were centrifuged (10,000 g, 5 minutes) washed twice with assay buffer (5 mM HEPES-KOH, 5 mM glucose, pH 7.2) and resuspended in assay buffer to OD600=1. 100 microliters of washed cells in assay buffer was then mixed with 100 microliters of assay buffer containing 20 μM NPN in a 96-well optical bottom black plate (Thermo). Two microliters of the test substances were then added, briefly mixed, and then placed in a plate reader to monitor fluorescence (excitation 350 nm, emission 420 nm) at one minute intervals for 10 minutes. Controls containing no cells or water-only were included in the assay. NPN uptake was calculated using the formula below at each time point and averaged over all time-points and three replicates.

[13] = tested on: Pseudomonas aeruginosa (ATCC #10145); experiment: Growth curves (OD600)
Method: To generate growth curves, overnight cultures of Pseudomonas aeruginosa (ATCC #10145) from Plate Count Agar were lifted and resuspended in dH2O and adjusted to OD600=0.01 with sterile Mueller Hinton Broth (MHB). This culture was distributed into wells of an uncovered 96-well plate with the indicated biocides. The OD600 was then measured initially and then every 30′ for 16 hours at 37° C. with constant double orbital shaking. Due to the opacity of the samples dosed with some test compounds, the curves were generated by background subtracting from wells containing sterile MHB and then subtracted from their initial (t=0) measurement.

[14] = tested on: Pseudomonas aeruginosa (ATCC #10145); experiment: Checkerboard assay; conditions: alone, 100-500 ppm; 24 hours of incubation
Method: The checkerboard assay was performed by separately dosing Polyphase PW40 (40% IPBC) and a 20% nanoparticle ZnO dispersion (Sigma #721077) into 100 microliters of Mueller Hinton Broth containing ˜1.0*10^5 CFU/mL of Pseudomonas aeruginosa (ATCC #10145). The plate was then incubated overnight at 37° C. with constant double orbital shaking. The next day, the dispersions were allowed to settle on the bench for 2 hours and the plate was photographed. Growth in this assay was defined as the turbidity of the supernatant.

[15] = Pseudomonas aeruginosa, ATCC10145, 24 h
[16] = Escherichia coli, ATCC11229, read-out: MIC
[17] = Staphylococcus aureus, ATCC6538, read-out: MIC
[18] = Joint Compound, lowest concentration free of detectable bacterial growth 7 days following the 4th inoculation
[19] = 96 well microbroth dilution, MHB, 24 hours of incubation

For CCCCC(O)CO (stereo not shown) [1,2-hexanediol], the MIC ([1]; Bacillus, read-out: MIC) was 10000 µg/mL, the MIC ([2]; Burkholderia, 24 h) was 5000 µg/mL and the “Killing of Pseudomonas (kill curve)” value ([3]; 1,2-hexanediol added to IPBC/ZnO (FIG. 5)) was “fully capable of killing Pseudomonas”. For the same molecule, the “Pass Level” value [4] was “Not Effective”, the “Pass Level (ppm a.i.)” value [4] was > 12,000 ppm a.i and the MIC ([5]; Pseudomonas, read-out: MIC) was 5000 µg/mL. The MIC [6, 15] was 6000 µg/mL, the MIC [7, 16] was 6000 µg/mL and the MIC [8] was 10000 µg/mL. The MIC [9, 17] was 24000 µg/mL, the MIC ([10]; read-out: MIC) was 6000 µg/mL and the “Pass Level” value [11, 18] was 1.2 % w/w. For the same molecule, the “Pass Level (ppm a.i.)” value [11, 18] was 11,880 ppm a.i.
With CCCCCCOCCOCCO [Hexyl Carbitol] the MIC [1] was 4447 ppm, the MIC [2, 19] was 1853 ppm and the “Membrane disruption potential against Pseudomonas (NPN assay)” value [12] was “highest membrane disruption potential”. It also gave an MIC [5] of 5929 ppm, an MIC [6, 19] of 11856 ppm and an MIC [7] of 11857 ppm. The MIC [9] was 11857 ppm, the MIC [10] was 1482 ppm and the “Improvement in the bacterial resistance of paint containing IPBC/ZnO” value ([11]; paint challenge testing (Table A9)) was “highly similar performance as 1,2-hexanediol”.
With CCCCCCOCCO [Hexyl Cellosolve] the “Membrane disruption potential against Pseudomonas (NPN assay)” value [12] was “highest membrane disruption potential”.
In the case of CCCCNC(=O)OCC#CI [IPBC, 3-iodoprop-2-yn-1-yl butylcarbamate], the MIC ([1]; Bacillus, read-out: MIC) is reported as 9 µg/mL, the MIC ([2]; Burkholderia, 24 h) is reported as 63 µg/mL and the Pseudomonas growth ([13]; 400 ppm IPBC (0.1% w/w Polyphase PW40) with ≥0.25 mM PAβN, 16 hours) is reported as “complete growth inhibition”. The Pseudomonas growth ([13]; 400 ppm alone, 16 hours) was “growth”, the Pseudomonas growth ([13]; IPBC with PAβN in the presence of 1 mM MgCl2) was “weaker IPBC potentiation” and the Pseudomonas growth ([13]; control, without PAβN (FIG. 1C)) was “no Pseudomonas inhibition”. For the same molecule, the “Turbidity of wells (growth)” value [14] was “turbid”, the “Kill curve CFU/mL” value ([3]; 0 hrs) was 5.40E+06 CFU/mL and 7.00E+06 CFU/mL and the “Kill curve CFU/mL” value ([3]; 2 hrs) was 7.10E+06 CFU/mL and 7.30E+06 CFU/mL. For the same molecule, the “Kill curve CFU/mL” value ([3]; 24 hrs) was 1.33E+10 CFU/mL and 1.45E+10 CFU/mL, the “Kill curve CFU/mL” value ([3]; 48 hrs) was 4.90E+09 CFU/mL and 3.80E+09 CFU/mL and the MIC ([5]; Pseudomonas, read-out: MIC) was 300 µg/mL. It also gave an MIC [6, 15] of no less than 400 µg/mL, an MIC [7, 16] of 2400 µg/mL and an MIC [8] of 1000 µg/mL. For the same molecule, the MIC [9, 17] was 450 µg/mL and the MIC ([10]; read-out: MIC) was 11 µg/mL.
